# Measured values published in patent publication EP0468634A1, “The use of macrocyclic aminophosphonic acid complexes as imaging agents” (THE DOW CHEMICAL COMPANY, priority 1990, dated 1992).
# How the values were obtained:
# [1] = Determination of water proton T1 relaxation time (inversion recovery NMR, 270 MHz); type: physicochemical; conditions: deoxygenated, Example 1 complex at 680 µMolar in 20% D₂O (vol/vol)
# Protocol: The complex from Example 1 was deoxygenated by bubbling dry nitrogen gas through it for 20 min. The sample was then placed in a 5 mm NMR tube and placed in a 270 MHz spectrometer for determination of the water proton relaxation time.
# The NMR experiment used to measure the relaxation time was the standard inversion recovery technique for measuring spin-lattice (T₁) relaxation times. In this technique the intensity of the water proton NMR resonance is measured as a function of a variable delay time between radiofrequency pulses during which the spin system relaxes toward equilibrium. The final data, which consisted of peak intensities versus delay time, was plotted and fitted to an exponential function. The characteristic time for spin magnetization to reestablish itself (T₁) is obtained from the time constant of the fitted exponential function. The value for T₁ for the complex of Example 1 was 244 mS. This compares favorably to a value of 422 mS for a Gd-DTPA, and 540 mS for Gd-DOTA when the experiment was repeated using these complexes. (The Gd-DTPA and Gd-DOTA are known commercial MRI agents.)
# [2] = Biodistribution of Gd-DOTMP complex in a rat: Gd in femur by inductively coupled plasma spectroscopy; type: in vivo, Sprague Dawley rat
# Protocol: A 150 g Sprague Dawley rat was injected with 6-100 µL portions of the Gd-DOTMP, prepared in Example 4, over a 4 day period. This rat was then sacrificed and one of its femur bones was removed and found to weigh 0.690 g. This bone was dissolved in 5 mL of concentrated HCl and analyzed for Gd by inductively coupled plasma spectroscopy. The amount of Gd found in the femur bone was 16.76 µg, which corresponds to 419 µg in the total rat skeleton, assuming the femur is 1/25th of the total skeleton. This corresponds to 25.5% of the injected dose going to the bone. That result compares favorably with similar work done with radioactive tracer ¹⁵³Sm where at these high levels of injected doses about 25-30% of the injected dose localizes in the bone. Thus the behavior of Sm-DOTMP and Gd-DOTMP are very similar in vivo.
# [3] = Quantitative biodistribution of 159Gd tracer formulation in rat (NaI scintillation counting of tissues); type: in vivo, Sprague Dawley rat; conditions: 100 µL via tail vein, 2 hours after injection, ligand to metal molar ratio 1.5, 0.32 mg/mL
# Text: Quantitative biodistributions were obtained by injecting 50-100 microliters of the composition into the rail vein of unanesthetized male Sprague Dawley rats. The rats were then placed in cages lined with absorbent paper in order to collect all urine excreted prior to sacrifice. After a given period of time, the rats were sacrificed by cervical dislocation and the various tissues dissected. The samples were then rinsed with saline, blotted dry on absorbent paper and weighed. The radioactivity in the samples was measured with a NaI scintillation counter.
# A 1.45 mg sample of DOTMP, prepared by the procedure of Example B, was placed in a vial and dissolved in 760 µL of water and 5 µL of 50% (wt/wt) of NaOH. A volume of 1000 µL of Gd solution (0.3 mM Gd in O.1N HCl), which contained tracer quantities of ¹⁵⁹Gd, was placed in a separate vial and 15 µL of the DOTMP solution was added. The pH of the solution was adjusted to 7 to 8 using NaOH. The amount of Gd as a complex was determined to be > 99% by cation exchange chromatography. This formulation has a ligand to metal molar ratio of 1.5.
# A Sprague Dawley rat was injected with the above prepared formulation and the biodistribution determined. The rat was allowed to acclimate for five days then injected with 100 µL of the Gd solution described above via a tail vein. The rat weighed between 150 and 200 g at the time of injection. After 2 hours the rat was killed by cervical dislocation. Tissues were taken, weighed and the amount of radioactivity in each tissue was determined by counting in a NaI scintillation counter coupled to a multichannel analyzer. The counts in each tissue were compared to the counts in 100 µL standards in order to determine the percentage of the injected dose in each tissue or organ. The ligand (DOTMP) to metal (Gd) molar ratio = 1.5.
compound,measurement,setting,value
O=C([O-])CN1CCN(CC(=O)[O-])CCN(CC(=O)O)CCN(CC(=O)[O-])CC1.[Gd+3] [Gd-DOTA],T₁ (spin-lattice relaxation time of water protons),[1],540 mS
O=C([O-])CN(CCN(CC(=O)[O-])CC(=O)O)CCN(CC(=O)[O-])CC(=O)O.[Gd+3] [Gd-DTPA],T₁ (spin-lattice relaxation time of water protons),[1],422 mS
Gd-DOTMP [Example 1],amount of Gd found in the femur bone,"[2]; 150 g rat, 6-100 µL portions over a 4 day period, femur 0.690 g, ICP",16.76 µg
same,% of the injected dose going to the bone,"[2]; 150 g rat, 6-100 µL portions over a 4 day period, from femur Gd",25.5%
same,Gd in the total rat skeleton,[2]; assuming the femur is 1/25th of the total skeleton,419 µg
same,T₁ (spin-lattice relaxation time of water protons),[1],244 mS
¹⁵⁹Gd-DOTMP [Ho-DOTMP],% OF INJECTED DOSE (159Gd) in Blood,[3],0.08%
same,% OF INJECTED DOSE (159Gd) in Bone,[3],50%
same,% OF INJECTED DOSE (159Gd) in Kidney,[3],0.25%
same,% OF INJECTED DOSE (159Gd) in Liver,[3],0.08%
